# Where no end group is shown, it is not given here.
# Key:
# [1] = Peptide bioavailability in mouse vitreous after 5 μg eye drop (MALDI TOF); format: in vivo, C57BL/6 mice; conditions: mouse, in vivo
# Method: Before the longitudinal efficacy studies were carried out in vivo, the bioavailability of the five analogs was examined in comparison to the parent compound P78 and its active 29-mer derivative, SpxA1.
# Bioavailability of each peptide was determined in vitreous samples obtained at various time points after eye drops were given. Vitreous samples were harvested from enucleated eyes and immediately analyzed by mass spectrometry. Spectral intensities were compared to spectra of known concentrations of each analog to calculate amounts of peptides reaching the vitreous. The eye drops administered to normal mouse eyes contained 5 μg of the test compound. Bioavailability was studied at three time points: 1, 4, 6 hr using four animals/time point (n=8 eyes). The vitreous was rapidly dissected from each group after the drops were given and immediately analyzed by MALDI TOF.
# [2] = Peptide bioavailability in primate eyes, vitreous humor by mass spectrometry; format: in vivo, primate (Vervets); conditions: 100 μg topical
# Description: From the studies using the DR mouse model, two active, structurally diverse peptides 81-5 and 81-13 were selected to test their availability in the primate eye when given topically. There are substantial differences between the eyes of rodents, primates, and humans. The most obvious is size of the aqueous and vitreous fluid compartments. Fluid flow forward from the ciliary body in primates/humans is countercurrent to drug movement to the back of the eye and may influence drug concentrations in the vitreous. In this study, it was examined whether the selected compounds had access to the retina when given topically to primate eyes as they do in rodents. Peptide doses used were scaled up by 8-20 fold as an estimate to account for differences in eye volume between rodents and primates.
# Adult males and females were equally distributed into 3 treatment groups (Table 3) and randomized by weight criteria. Animals were fasted overnight then sedated with ketamine (8 mg/kg, I.M) and xylazine (1.6 mg/kg, I.M) prior to all procedures. Two monkeys received a topical dose of 40 μg (40 μl) of 81-5 OU (both eyes) and underwent vitreocentesis at ˜1 hr (Group 1) after dosing. […]
# Samples were analyzed by mass spectrometry and concentrations calculated using a standard curve that plotted intensity vs known concentration. […]
# [3] = tested on: human ARPE19 cells; assay: Cell viability by ATP levels (CellTiter-Glo), serum starvation or H2O2; format: cell-based; conditions: serum starvation and 300 uM H2O2, 25 nM peptide, 48 hr
# Method: The analogs were tested for their efficacy in reducing levels of TNFα, IFNγ, VEGF-A and increasing cell viability in in vitro assays. Efficacy was compared to both non-treated oxidative stressed controls and the control standard P78.
# (§1) Briefly, to test efficacy of the compounds in preventing cell death, experiments were performed to screen for the ability of each analog to: 1) increase cellular bioenergetic levels in an ATP assay and 2) reduce cell death in an LDH assay. To test the action of each analog on inflammatory processes, Luminex bead arrays were used to examine the ability of each analog to decrease production of inflammatory cytokines. To test for the potential of each analog to reduce vascular leakage, qPCR was used to examine the ability of each analog to increase mRNA levels of ZO1 and occludin, two junction proteins essential to vascular integrity. To test peptide stability in the vitreous, the analogs were incubated with dissected vitreous humor and the samples were analyzed at various time points using Maldi-TOF. These tests allowed for the systematic selection of analogs having the least toxicity and the strongest potential to reduce pathology in vivo.
# The effects of the peptides to increase cell viability by increasing levels of ATP were tested in two models of cell death: (i) serum starvation; (ii) oxidative stress caused by hydrogen peroxide toxicity (300 uM). With respect to serum starvation, human ARPE19 cells were grown to ˜85% confluency in 10% serum containing medium after which the cells were placed in serum-free medium for 48 hr in the presence or absence (control) of 25 nM of each peptide. For ATP assay, CellTiter-Glo® reagents were used and luminescence was determined after 12 min spectrophotometrically (n=4) (FIG. 2A). With respect to oxidative stress, human ARPE19 cells were grown to ˜85% confluency in 10% serum containing medium. The cells were then treated with 300 uM H2O2 for 48 hours in the presence or absence (control) of 25 nM of each peptide. Levels of ATP were measured and % luminescence to controls and P78 was quantitated (n=4). Changes to ATP levels are plotted against control values and p values are given to P78 (FIG. 2B).
# [4] = tested on: ZO1 and occludin; assay: qPCR of tight junction mRNA (potential to reduce vascular leakage); format: cell-based; conditions: compared to P78 and SpxA1
# Method: as §1
# To test for the potential of each peptide (81-2, 81-5, 81-12, 81-13 and 81-20) to reduce vascular leakage, qPCR was used to examine the ability of each analog to increase mRNA levels of Z01, a junction protein essential to vascular integrity (FIG. 4A).
# [5] = tested on: VEGF; assay: Vitreous VEGF after 15 wks eye drops (Luminex); format: in vivo, Ins2Akita mouse; conditions: 5 μg eye drop 2×/wk for 15 wks, relative to diabetic controls
# Method: From the in vitro P78 peptide analog screening studies, five structurally diverse analogs with best biological activity were selected to test their efficacy in the diabetic mouse eye. In vivo effects of these peptides were tested in the Ins2Akita mouse model of DR, a well-characterized DR model that has a mutation in the insulin gene. Heterozygote Ins2Akita mice (Jackson Lab) become hyperglycemic (HG) at ˜4.5 wks of age. RGC death and inflammation occur within the first 4-6 wks of DR and vascular pathology is first noticed ˜13 wks after the onset of diabetes. The studies were designed to identify peptide candidates with pleotrophic effects on cell death, inflammation, and vascular leakage in the diabetic retina.
# Male hyperglycemic mice with blood glucose levels >300 mg/dL were used and treatments carried as previously described for P78 (Liu et al., 2012, Mol. Med., 18(1): 1387-1401). Diabetic mice were treated 2×/wk for 15 wks at the onset of HG using a single dose of 5 μg/5 μl artificial tears for each drug, a dose at which P78 is effective. Both eyes received the same treatment to avoid drug cross contamination between the eyes of an individual animal. […]
# Levels of VEGF were also quantitated in the vitreous of the 15 wks peptide treated and control groups using the Luminex bead technology. […]
# [6] = tested on: HUVEC; assay: VEGF-mediated HUVEC tube formation on human dermal fibroblasts; format: cell-based; conditions: 100 nM peptide, 4 ng/ml VEGF, 12 days; compared to VEGF
# Method: Human dermal fibroblasts were cultured at 1×10^5/well in IncuCyte seeding medium (Essen Bioscience) in 96 wells plates for 1 hr. Medium was removed and replaced with complete IncuCyte growth medium (Essen Bioscience). Human umbilical vein endothelial cells (HUVEC) containing a green fluorescent marker (HUVEC CytoLight green) cells at 2000 cells/well were/well to attached dermal fibroblasts cultures and placed in the IncuCyte Zoom fluorescent and phase contrast multiplex imaging incubator (Essen BioScience). Twenty four hours later 4 ng/ml VEGF was added to all wells and 100 nM/ml PEDF peptides added to test wells. Cultures containing VEGF alone were used as positive controls and those containing 100 μM Suramin (VEGF inhibitor) used as negative controls. The cultures were placed at 37° C. in the Incucyte Zoom and HUVEC tube length networks measured over a 12 day incubation period using the Incucyte CellPlayer Angiogenesis software module and interface systems. Media was refreshed every 3-4 days.
# [7] = tested on: transcription factors; assay: Procarta multiplex transcription factor DNA binding activity; format: cell-based; conditions: 50 nM peptides, 48 hr, human RPE cells
# Method: Activation of transcription factors by P78, spx or 81-5 was measured in human RPE cells. The Affymetrix Procarta Multiplex Transcription factor panel (Affymetrix, Inc. Santa Clara, Calif.) was used to obtain quantitative measurement of DNA binding activity of 44 transcription factors. Cells were seeded at 1×10^5 cells/ml in 6 well plates. Cells were treated with 50 nM peptides in 2% FBS medium for 48 hr, peptides were supplied twice after 24 hr. Cells were harvested using Buffer A working reagent (250 μl well)(1 ml Buffer A: 10 μl DTT, 10 μl protease inhibitor, 10 μl phosphatase inhibitor I, 10 μl phosphatase inhibitor II) and centrifuged at 14,000×g for 3 min at 4° C. Supernatant containing cytoplasmic proteins was collected and protein concentration estimated using the BioRad DC protein assay. To the nuclear pellets, 30 μl/well buffer B (1 ml Buffer B: 10 μl DTT, 10 μl protease inhibitor, 10 μl phosphatase inhibitor I) was added and the samples incubated for 2 hours at 200 rpm. Supernatant containing nuclear proteins was collected by centrifugation at 14,000×g for 5 min at 4° C. and protein concentration measured using Bio-Rad DC protein assay. […] The beads were washed again, resuspended with reading buffer, and incubated for 5 min at room temperature. DNA binding activity of the transcription factors was measured using the Bio-Plex 200 system (bio-Rad) and the xMAP technology.
molecule,measurement,setting,value
"SALSLGAAERTESIIHR [Peptide 81-13, SALSLGAAERTESIIHR]",bioavailability profile in rodents,[1],comparable bioavailability profiles with 81-5
same,"peptide concentration in the vitreous, 1 versus 2 hr",[2],not significantly different between the 1 and 2 hr treatment
"{BA*}NFGYDLYRVRSSMSPTTNSALSLGADERTESIIHR{PEG*} (not fully specified (N-terminus, C-terminus); printed as {BA*}NFGYDLYRVRSSMSPTTNSALSLGADERTESIIHR{PEG*}) [Peptide 81-12, P60 + 81-1, butyric acid at N-terminus, PEGylated at C-terminus]",ATP viability tests: selection for in vivo studies,[3],good candidates for the in vivo studies
same,ZO1 mRNA expression,[4],higher expression of ZO1 compared to P78 and SpxA1
same,VEGF levels in the vitreous,[5],slightly but significantly more effective
same,inhibition of HUVEC tube formation,[6],prevented tube formation compared to VEGF but less effective
Pigment epithelium derived factor (protein) QNVPSSSEGSPVPDSTGEPVEEEDPFFKVPVNKLAAAVSNFGYDLYRLRSSASPTGNVLLSPLSVATALSALSLGAEHRTESVIHRALYYDLITNPDIHSTYKELLASVTAPEKNLKSASRIVFERKLRVKSSFVAPLEKSYGTRPRILTGNPRVDLQEINNWVQAQMKGKIARSTREMPSALSILLLGVAYFKGQWVTKFDSRKTTLQDFHLDEDRTVRVPMMSDPKAILRYGLDSDLNCKIAQLPLTGSMSIIFFLPLTVTQNLTMIEESLTSEFIHDIDRELKTIQAVLTVPKLKLSFEGELTKSLQDMKLQSLFESPDFSKITGKPVKLTQVEHRAAFEWNEEGAGSSPSPGLQPVRLTFPLDYHLNQPFLFVLRDTDTGALLFIGRILDPSST,regulation of transcription factors,[7],regulates transcription factors

# Reference: patent publication US9611314B2, “Functional peptide analogs of PEDF” (The Penn State Research Foundation, priority 2013, dated 2017)
